# Assay results taken from PMC12305494, “Discovery of PXR Antagonist MI891 and PXR Degrader MI1013 and Their Roles in Hepatic Gene Regulation” (Journal of Medicinal Chemistry, 2025).
# Columns and labels:
# PXR = biological target: T1, PXR (Homo sapiens, UniProt O75469); assay: PXR-responsive CYP3A4 promoter luciferase reporter assay in HepG2, agonist mode; assay type: cell-based; set-up: expressed in transfected cells; host or cells: HepG2; settings: HepG2, at concentrations up to 10 μM
# T1 sequence (O75469 1-434): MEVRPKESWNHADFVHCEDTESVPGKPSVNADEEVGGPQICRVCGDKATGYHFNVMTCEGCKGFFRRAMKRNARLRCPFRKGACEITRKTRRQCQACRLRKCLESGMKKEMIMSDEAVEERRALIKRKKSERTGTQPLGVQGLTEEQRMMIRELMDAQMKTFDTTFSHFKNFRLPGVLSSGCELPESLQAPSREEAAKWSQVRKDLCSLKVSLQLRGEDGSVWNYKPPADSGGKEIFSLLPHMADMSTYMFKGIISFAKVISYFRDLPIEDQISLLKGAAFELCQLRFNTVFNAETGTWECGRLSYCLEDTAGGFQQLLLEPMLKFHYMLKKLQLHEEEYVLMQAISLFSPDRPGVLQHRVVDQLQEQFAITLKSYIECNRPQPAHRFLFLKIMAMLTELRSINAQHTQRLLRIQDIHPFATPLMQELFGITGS
# Protocol: Rhesus monkey, mouse, and rat PXR expression vectors (100 ng/well each) were also obtained from GenScript. […] Carlberg (University of Kuopio, Kuopio, Finland).
# The cells were cultured in DMEM medium (Merck) supplemented with 10% fetal bovine serum.
# eGFP-tagged PXR = biological target: T2, eGFP-tagged PXR (Homo sapiens, UniProt O75469+Q96SW2); assay: Fluorescence (eGFP) intensity assay in COS-1 cells; assay type: cell-based; settings: 24 h
# T2 construct: host or cells: COS-1
# T2 sequence (Q96SW2 whole entry, one chain of several): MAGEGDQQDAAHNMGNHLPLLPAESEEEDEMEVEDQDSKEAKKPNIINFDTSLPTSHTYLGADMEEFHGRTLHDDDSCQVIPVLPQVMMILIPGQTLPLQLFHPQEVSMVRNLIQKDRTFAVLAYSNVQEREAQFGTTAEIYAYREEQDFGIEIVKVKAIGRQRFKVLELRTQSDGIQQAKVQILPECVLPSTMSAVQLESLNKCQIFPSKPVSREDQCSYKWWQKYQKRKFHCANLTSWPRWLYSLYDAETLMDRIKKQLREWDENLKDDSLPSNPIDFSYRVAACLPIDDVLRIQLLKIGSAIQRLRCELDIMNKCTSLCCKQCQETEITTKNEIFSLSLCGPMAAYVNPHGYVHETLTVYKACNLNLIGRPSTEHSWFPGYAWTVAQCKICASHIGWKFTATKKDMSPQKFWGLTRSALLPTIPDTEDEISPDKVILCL
# Protocol: COS-1 cells were transfected with 150 ng of PXR-eGFP (NR1I2_pcDNA3.1(+)-N-eGFP, GenScript Biotech) and 150 ng of CRBN (GenScript - CRBN_OHu21180D_pcDNA3.1+/C-(K)-DYK) in a 48-well plate using Lipofectamine 3000, following the manufacturer’s protocol. After 24 h, the transfected cells were treated with varying concentrations of the MI1013 compound and incubated for another 24 h. The eGFP fluorescence was then checked and imaged using the Invitrogen EVOS imaging system. Fluorescence intensity was measured using the Spark Multimode Microplate Reader (V2.2) in Fluorescence Intensity Scan Top Reading mode. The excitation wavelength was set between 440 and 500 nm, and the emission wavelength was set at 545 nm (Monochromator), with a gain of 100 and an integration time of 40 μs. Graphs were generated using GraphPad Prism.
substance,measurement,setting,value
"N-(4-((1-(2,5-dimethoxyphenyl)-5-methyl-1H-1,2,3-triazol-4-yl)sulfonyl)phenyl)-3-(2-(2-(2-(4-(((2-(2,6-dioxopiperidin-3-yl)-1,3-dioxoisoindolin-4-yl)amino)methyl)-1H-1,2,3-triazol-1-yl)ethoxy)ethoxy)ethoxy)propenamide [Compound 36]",PXR agonistic activity,PXR,did not exhibit agonistic activity
same,degradation of eGFP-tagged PXR (loss of fluorescence),eGFP-tagged PXR,dose-dependent degradation of eGFP-tagged PXR
